The values below come from patent US7381542B2, “Nucleic acids encoding a biogenic amine receptor” (Oregon Health & Science University, priority 2001, dated 2008).

Entries after “also recorded” stand apart in the source; their conditions may differ. Like-named read-outs stand apart in the source and are kept apart here.

As usually defined, the EC50 is the concentration giving half of the maximal effect.

The target of one test is T1, rat trace amine receptor (Rattus norvegicus, UniProt Q923Y9, L170Q/L53I/P183L/R211E/S15R).
T1 construct: expression vector containing the full-length rat cDNA clone described above; expressed in transfected cells
The test can be described thus: cell-based. The class given is cell-based. Particulars: for Emax: HEK293, percent of stimulation by p-tyramine, read-out: Maximal Stimulation (% ± SEM).

Test [1] deals with T2, human trace amine receptor (Homo sapiens, UniProt Q96RJ0, S183L/Y279S).
T2 construct: expressed in transfected cells; host or cells: HEK 293 cells, pcDNA 3.1 vector (construct H2-3 pcDNA3.1)
T2 sequence (Q96RJ0 1-339 S183L/Y279S): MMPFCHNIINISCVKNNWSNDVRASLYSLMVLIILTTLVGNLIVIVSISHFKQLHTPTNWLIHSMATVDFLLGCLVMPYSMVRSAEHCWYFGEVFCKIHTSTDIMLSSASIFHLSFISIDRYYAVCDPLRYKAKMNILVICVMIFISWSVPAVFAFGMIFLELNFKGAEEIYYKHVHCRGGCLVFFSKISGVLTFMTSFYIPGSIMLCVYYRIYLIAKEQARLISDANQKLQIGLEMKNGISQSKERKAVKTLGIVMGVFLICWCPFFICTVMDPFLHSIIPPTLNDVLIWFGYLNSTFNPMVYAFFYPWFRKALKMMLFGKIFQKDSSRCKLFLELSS
The test can be described thus: MAP kinase pathway (Elk-gal/luciferase reporter) stimulation in HEK 293 cells transfected with H2-3 pcDNA3.1. Format: cell-based. As to conditions: compared with cells incubated in the absence of the ligand; receptor-transfected HEK 293 cells. The text has this:
(§1) Control cells were transfected with pcDNA3.1 without the rat trace amine receptor sequences. All cells were also co-transfected with 2 additional constructs: one (elk-gal) that encoded the yeast transcription factor gal under the transcriptional control of an Elk-responsive promoter, and another encoding firefly luciferase under the transcriptional control of a gal-responsive promoter.
(In general: A reporter such as luciferase makes a cellular process visible.)

Test [2] deals with HEK 293 cells transfected with pcDNA3.1. As to the kind of experiment: MAP kinase pathway luciferase reporter in control HEK 293 cells transfected with pcDNA3.1 without receptor. Format: cell-based, human. As to conditions: compared with cells incubated in the absence of the ligand.
Excerpt: as §1

[3] abbreviates: Table III, cAMP, 1 hour at 37° C., 100 μM IBMX, read-out: EC50 (nM ± SEM).
The mark [4] stands for this setting: untitled table after Table III, first value column, read-out: EC50 (nM), NEUROTRANSMITTERS, first column.
The mark [5] stands for this setting: untitled table after Table III, second value column, read-out: EC50 (nM), NEUROTRANSMITTERS, second column (no head of its own).
The mark [6] stands for this setting: untitled table after Table III, drugs, read-out: EC50 (nM), DRUGS.
Where [7] appears, read: EC50 (nM), NEUROTRANSMITTERS, first column.
Where [8] appears, read: EC50 (nM), NEUROTRANSMITTERS, second column (no head of its own).

T1 sequence (Q923Y9 whole entry S15R/L53I/L170Q/P183L/R211E): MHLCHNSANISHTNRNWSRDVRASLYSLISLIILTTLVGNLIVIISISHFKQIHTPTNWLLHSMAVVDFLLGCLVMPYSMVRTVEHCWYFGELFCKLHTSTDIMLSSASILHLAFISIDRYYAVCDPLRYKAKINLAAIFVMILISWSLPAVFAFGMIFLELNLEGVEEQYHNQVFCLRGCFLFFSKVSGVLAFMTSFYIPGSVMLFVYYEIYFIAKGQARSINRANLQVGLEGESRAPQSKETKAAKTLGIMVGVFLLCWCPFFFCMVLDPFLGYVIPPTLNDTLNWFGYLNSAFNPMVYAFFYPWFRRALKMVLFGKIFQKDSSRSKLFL

Consider `CNCC(O)c1ccc(O)cc1` (centres unmarked) [Synephrine], for which the EC50 at rat trace amine receptor (setting [3]) amounted to 584 ± 100 nM.

`NCCc1c[nH]c2ccccc12` [Tryptamine]: the EC50 came to 309 ± 76 nM at rat trace amine receptor (setting [3]), 248 nM at rat trace amine receptor (setting [4]) and 519 nM on rat trace amine receptor (setting [5]).

As for `N[C@@H](CCC(=O)O)C(=O)O` [glutamate], the “activation of the trace amine receptor (cAMP production), in words” value (“activation of the trace amine receptor” below) at rat trace amine receptor was “not activated”.

Turning to `COc1cc(C(O)CN)ccc1O` (stereo not drawn) [normetanephrine, 3-methoxy-β-4-dihydroxy-β-phenethylamine], at rat trace amine receptor, the “potency relative to precursor catecholamines dopamine, norepinephrine, epinephrine” value is reported as “significantly more potent; also recorded: more potently activated”.

For the compound `NCCc1c[nH]c2ccc(O)cc12` [5-hydroxytryptamine], the “fold stimulation (luciferase), H2-3 pcDNA3.1” value in test [1] turned out to be 1.22 fold. The “fold stimulation (luciferase), pcDNA3.1” value in test [2] is reported as 1 fold. The Emax on rat trace amine receptor (Table III) was found to be 47 ± 9%. Further, the EC50 at rat trace amine receptor (setting [3]) came to 12800 ± 4180 nM; at rat trace amine receptor (setting [4]) it was 1910 nM; at rat trace amine receptor (setting [5]), 8000 nM.

`CN[C@@H](C)Cc1ccccc1` [S-methamphetamine]: the concentration giving a half-maximal response (EC50) on rat trace amine receptor (setting [6]) worked out at 188 nM.

Take `C=CCN1CCc2c(cc(O)c(O)c2Cl)C(c2ccccc2)C1` (centres unmarked) [SKF82958]: the “fold stimulation (luciferase), pcDNA3.1” value in test [2] came to 0.79 fold.

As for `CN1C[C@H](C(=O)N[C@]2(C)O[C@@]3(O)[C@@H]4CCCN4C(=O)[C@H](Cc4ccccc4)N3C2=O)C[C@@H]2c3cccc4[nH]cc(c34)C[C@H]21` [dihydroergotamine], the “activation of the trace amine receptor” value on rat trace amine receptor (listed as dihydroergotsmnine) is “stimulate camp production”.

In the case of `COc1cc(CC(=O)O)ccc1O` [homovanillic acid, 3-methoxy4-hydroxyphenylacetic acid], the “activation of the trace amine receptor” value on rat trace amine receptor was “no detectable activity”.

Regarding `CN1CC=C(c2ccccc2)CC1` [MPTP, 1-methyl 4phenyl-1,2,3,6-tetrahydropyridine], the EC50 at rat trace amine receptor (setting [3]) was found to be 99 ± 11 nM.

As for `COc1ccc(CCN)cc1` [p-methoxy PEA], the EC50 at rat trace amine receptor (setting [6]) amounted to 346 nM.

Take `COc1cc(CCN)ccc1O` [3-methoxytyramine]: the “potency relative to precursor catecholamines dopamine, norepinephrine, epinephrine” value at rat trace amine receptor is “significantly more potent; also recorded: more potently activated”.

With `NCC(O)c1ccc(O)cc1` (centres unmarked) [Octopamine], the EC50 at rat trace amine receptor (EC50 (nM ± SEM)) was determined as 1300 ± 350 nM; at rat trace amine receptor (setting [7]) it was 874 nM; at rat trace amine receptor (setting [8]), 1400 nM.

As for `CNCC(O)c1ccc(O)c(OC)c1` (stereo not drawn) [metanephrine, 3-methoxy-β-4-dihydroxy-N-methyl-β-phenethylamine], the “potency relative to precursor catecholamines dopamine, norepinephrine, epinephrine” value on rat trace amine receptor is given as “significantly more potent; also recorded: more potently activated”.

In the case of `CN[C@H](C)Cc1ccccc1` [R-methamphetamine], the EC50 on rat trace amine receptor (setting [6]) is 236 nM.

As for `NCCc1ccc(O)cc1` [p-tyramine], the EC50 at rat trace amine receptor (EC50 (nM ± SEM)) was found to be 69 ± 9 nM; at rat trace amine receptor (EC50 (nM), DRUGS), 20.2 nM; at rat trace amine receptor (setting [7]), 44.9 nM; at rat trace amine receptor (setting [8]), 82 nM. Also, at rat trace amine receptor (Table III), the Emax came to 100%.

On to `NCCc1ccccc1` [Phenethylamine, β-phenethylamine], for which the results for the EC50 at rat trace amine receptor (setting [3]), on rat trace amine receptor (setting [4]) and at rat trace amine receptor (setting [5]) were 237 ± 71 nM, 218 nM and 124 nM, respectively.

`NCCc1cccc(O)c1` [m-tyramine]: the EC50 was determined as 5370 ± 1180 nM at rat trace amine receptor (setting [3]), 7190 nM on rat trace amine receptor (setting [4]) and 5800 nM at rat trace amine receptor (setting [5]).
